From patent US11541029B2, “High penetration compositions and their applications” (Techfields Pharma Co., Ltd., priority 2008, dated 2023) come the findings set out here.

Series [1] relates to Hypertension patients. The series can be described thus: Anti-hypertensive effect of transdermal atenolol HCl salt in patients. The format is in vivo, human. The protocol: 20 Hypertension patents were divided to 2 groups. Group A was control group (n=10, 1 ml of water was administrated to the chest of patients once per day) and group B was atenolol treated group (n=10, 100 mg of atenolol HCl salt was administrated to the chest of patients once per day).

The test system of series [2] is methicillin-resistant Staphylococcus aureus (MRSA). The series can be described thus: Minimum inhibitory concentrations (MICs). The format is cell-based. The protocol: Minimum inhibitory concentrations (MICs) of the antimicrobials and their HPCs were assessed according to Jennifer M. Andrews, Journal of Antimicrobial Chemotherapy 48, suppl. S1, 5-16 (2001). […] The test compounds are: 6-phenoxyacetacetamidopenicillanic acid 1-piperidineethyl ester hydrochloride (penicillin V-PEE), penicillin V, 6-(2,6-dimethoxybenzamido)penicillinic acid 2-pyrrolidinemethyl ester hydrochloride (methicillin-PME), methicillin, 7-[[(2-acetylamino-4-thiazolyl)(methoxyimino)acetyl]amino]-8-oxo-5-thia-1-azabicyclo[4.2.0]oct-2-ene-2-carboxylic acid 2-diethylaminoethyl ester hydrochloride (ceftizoxime-DEE), and ceftizoxime).

In series [3] the test system is lesions similar to psoriasis generated by Malassezia. Kind of series: Anti-psoriasis activity, Malassezia-induced lesions. The class given is in vivo, Chinese white rabbits. Particulars: HPC 5% aq. applied to the lesion areas twice per day. The protocol:
Heavy suspensions of Malassezia [Rosenberg, E. W., et al., Mycopathologia, 72, 147-154 (1980)] were applied to the shaved skin on the backs of Chinese white rabbits (n=4×6) twice (at […]) per day for 2 weeks to generate lesions similar to psoriasis. HPCs (5%, aq.) were applied to the same areas 3 hours (10 am and 6 pm) after the application of Malassezia (7 am and 3 pm). […] HCl, diethylaminoethyl 1,8-diethyl-1,3,4,9-tetrahydropyrano-[3,4-b]indole-1-acetate.HCl, diethylaminoethyl 2-amino-3-(4-bromo-benzoyl)benzeneacetate.HCl, diethylaminoethyl 3-chloro-4-(2-propenyloxy)benzeneacetate. HCl, diethylaminoethyl 1-(4-chlorobenzoyl-5-methoxy-2-methyl-1H-indole-3-acetoxyacetate. HCl, diethylaminoethyl 4-(4-chlorophenyl)-2-phenyl-5-thiazoleacetate.HCl, and diethylaminoethyl 3-(4-chlorophenyl)-1-phenyl-1H-pyrazole-4-acetate.HCl

In series [4] the test system is Human breast cancer cells (BCAP-37). The series can be described thus: Human breast cancer xenograft in nude mice. How it is done:
Human breast cancer cells (BCAP-37, 2-3 mm^3 of tumor tissue was used in each mouse) were subcutaneously xenografted into nude mice (BALB, 12 groups, 7 mice each group). […] 50 μl of 5% (equal to 2.5 mg of the HPCs) diethylaminoethyl acetylsalicylate.HCl (P-1, in pure water); 1-piperidinepropyl 2[(2,6-dichlorophenyl)amino]benzene acetate.HCl (P-2, in water), 1-pyrrolidinepropyl 2-(3-benzoylphenyl) propionate.HCl (P-3, in water), 4-piperidinemethyl 2-(3-phenoxyphenyl)propionate.HCl (P-4, in water), 3-piperidinemethyl 2-(ρ-isobutylphenyl) propionate.HCl (P-5, in water), diethylaminoethyl 1-(p-chlorobenzoyl)-5-methoxy-2-methylindole 3-acetate.HCl (P-11, in water), 2-(4-morpholinyl)ethyl (Z)-5-fluoro-2-methyl-1-[(4-methylsulfinyl)phenylmethylene]-1H-indene-3-acetate.

In series [5] the test system is Human colon cancer cells (LS174J). Kind of series: Human colon cancer xenograft in nude mice. An excerpt: Human colon cancer cells (LS174J, 2-3 mm^3 of tumor tissue was used in each mouse) were subcutaneously xenografted into nude mice (BALB).
Series [6] deals with eyelashes and hairs. The series can be described thus: Stimulation of hair growth and eyelash growth by HPCs of prostaglandins. The class given is in vivo. Conditions: about 0.2 ml of 1% in pure water near the eyelashes, more than 1 month. The protocol:
(§1) About 0.2 ml of 1% of HPC of N,N-diethylaminoethyl 11,15-dihydroxy-9-oxoprost-13-en-1-oate.HBr (the HPC of prostaglandin E1), N,N-diethylaminoethyl (Z)-7-{[(1R,2R,3R,5S)-3,5-Dihydroxy-2-[1E,3S]-3-hydroxy-5-phenyl-1-pentenyl]cyclopentyl}-5-N-ethylheptenoate.HBr(the HPC of bimatoprost), (13,14-dihydro-17-phenyl-18,19,20-trinor PGF2αN,N-diethylaminoethyl ester, N,N-diethylaminoethyl (Z)-7-[(1R,2R,3R,5S)-3,5-dihydroxy-2-[(1E,3R)-3-hydroxy-4-[(α,α,α-trifluoro-m-tolyl)oxy]-1-butenyl]cyclopentyl]-5-heptenoate.HBr, or 13,14-dihydro-15-keto-20-ethyl PGF2αN,N-diethylaminoethyl ester in pure water is applied to the skin area close to the eyelashes (0.1 ml solution for each eye).
as §1, with “1” for “0.2”, “(frontal and parietal areas) on” for “area close to”, “head skull.” for “eyelashes (0.1 ml solution for each eye).”

In series [7] the test system is eyelashes and hairs. Described as above. The class given is in vivo. Conditions: about 1 ml of 1% in pure water on head skin, more than 1 month.
Series [8] relates to MPTP-induced Parkinson's disease mice. Kind of series: Anti-Parkinson's disease activity in MPTP-induced mice. Conditions: mouse, in vivo.
Protocol: Group A mice were ip injected 0.4% sodium carboxymethylcellulos (15 ml/kg per day) for 7 days. Group B and C mice were ip injected N-methyl-4-phenyl-1,2,3,6-tetrahydropyridine (MPTP, 30 mg/kg per day) for 7 days. The mice were divided into 2 groups. […] All mice were killed after the last treatment and the brain tissues were quickly freezed at −80° C. […] The contents of malondialdehyde (MDA) in the SN were measured with the thiobarbituric acid-reaction to indicate the LPO, and contents of glutathione (GSH) in the substantia nigra (SN) were based on the dithionitrobenzonic acid (DTNB) determination. The contents of GABA and Glu in the striatum and SN were shown by high performance amino acid auto-analyser.
The mark [9] stands for this setting: 100 mg to the chest once per day, n=10.
The mark [10] stands for this setting: about 50 μl of 5% topically every 12 hours.

Each structure is given as a SMILES string. Converted amounts (≈) assume the structure as drawn. Counter-ions that a name gives are not always drawn. Like-named read-outs stand apart in the source and are kept apart here.

For `CC(C)NCC(O)COc1ccc(CC(N)=O)cc1` (stereo not shown) [atenolol HPC, atenolol HCl salt], in series [1] (100 mg in 1 ml of pure water per day transdermally), the side effect entry was “without side effect of hypotention”. Further, in series [1] (setting [9]), the “Blood Pressure (before treatment), first figure of the pair” value is reported as 160 ± 22 mmHg; the “Blood Pressure (before treatment), second figure of the pair” value turned out to be 110 ± 20 mmHg; the “Blood pressure (2 weeks after treatment), first figure of the pair” value turned out to be 128 ± 15 mmHg; the “Blood pressure (2 weeks after treatment), second figure of the pair” value is 81 ± 12 mmHg.
On to `CO/N=C(\C(=O)N[C@@H]1C(=O)N2C(C(=O)O)=CCS[C@H]12)c1csc(N)n1` [ceftizoxime, reference compound], for which the MIC in series [2] (read-out: MIC) stood at 986 µg/mL (≈ 2.57 mM).
With `CC(C)Cc1ccc(C(C)C(=O)OCC2CCCNC2)cc1.Cl` (stereo not shown) [P-5, 3-piperidinemethyl 2-(ρ-isobutylphenyl) propionate.HCl], the “time until lesions healed after the application” value (from here on “time until lesions healed”) in series [3] is 10 days. Besides, in series [4] (50 μl of 5% topically every 8 hours), the “tumor Size at day 42” value was 180 ± 55 mm^3. Also, the “Weight of mice at day 42” value in series [4] (in vivo) is 23 ± 2. The “tumor Size at day 30” value in series [5] (setting [10]) worked out at 520 ± 140 mm^3. Also, the “Weight of mice at day 30” value in series [5] (in vivo) is reported as 23 ± 2.
For `CCN(CC)CCOC(=O)Cc1ccc(C(=O)c2ccc(C)cc2)n1C.Cl` [P-13, diethylaminoethyl 1-methyl-5-(4-methylbenzoyl)-1H-pyrrole-2-acetate.HCl], in series [3], the “time until lesions healed” value was 10 days. In series [5] (setting [10]), the “Weight of mice at day 30” value is 23 ± 3 and the “tumor Size at day 30” value was 690 ± 250 mm^3.
For `CCN(CC)CCOC(=O)CCC/C=C\C[C@@H]1[C@@H](CC[C@@H](O)CCc2ccccc2)[C@H](O)C[C@@H]1O` [(13,14-dihydro-17-phenyl-18,19,20-trinor PGF2αN,N-diethylaminoethyl ester], the eyelash growth result in series [6] was “grow longer and fuller”. The hair growth result in series [7] is “grow longer and fuller”.
Turning to `COc1cccc(OC)c1C(=O)N[C@@H]1C(=O)N2[C@@H]1SC(C)(C)[C@@H]2C(=O)O` [methicillin, reference compound], the minimum inhibitory concentration (MIC) in series [2] (read-out: MIC) was found to be 1160 µg/mL (≈ 3.04 mM).
Same read-out and setting: as for `CCN(CC)CCOC(=O)C1=CCSC2C(NC(=O)C(=NOC)c3csc(NC(C)=O)n3)C(=O)N12.Cl` (stereo not shown) [ceftizoxime-DEE, 7-[[(2-acetylamino-4-thiazolyl)(methoxyimino)acetyl]amino]-8-oxo-5-thia-1-azabicyclo[4.2.0]oct-2-ene-2-carboxylic acid 2-diethylaminoethyl ester hydrochloride], the figure is 2.5 µg/mL.
For `Br.CCCCCC(O)C=C[C@H]1C(O)CC(=O)[C@@H]1CCCCCCC(=O)OCCN(CC)CC` (stereo partly shown) [HPC of prostaglandin E1, N,N-diethylaminoethyl 11,15-dihydroxy-9-oxoprost-13-en-1-oate.HBr], the eyelash growth entry in series [6] is “grow longer and fuller”. For the same compound, the hair growth result in series [7] was “grow longer and fuller”.
Regarding `CC1(C)S[C@@H]2[C@H](NC(=O)COc3ccccc3)C(=O)N2[C@H]1C(=O)O` [penicillin V, reference compound], in series [2], the minimal inhibitory concentration (MIC) came to 1824 µg/mL (≈ 5.21 mM).
`NC(=O)C[S+]([O-])C(c1ccccc1)c1ccccc1` (stereo not shown) [modafinil, reference compound]: the “effect on the increase of nigrostriatal Glu release induced by MPTP” value in series [8] is recorded as “did not change the increase of nigrostriatal Glu release induced by MPTP”.
In series [2], `CC1(C)SC2C(NC(=O)COc3ccccc3)C(=O)N2C1C(=O)OCCN1CCCCC1.Cl` (stereo not shown) [penicillin V-PEE, 6-phenoxyacetacetamidopenicillanic acid 1-piperidineethyl ester hydrochloride] showed a minimal inhibitory concentration (MIC) of 12 µg/mL.
Regarding `CCCCCCCC(=O)CC[C@@H]1[C@@H](C/C=C\CCCC(=O)OCCN(CC)CC)[C@@H](O)C[C@H]1O` [13,14-dihydro-15-keto-20-ethyl PGF2αN,N-diethylaminoethyl ester], in series [6], the eyelash growth entry is “grow longer and fuller”. Further, the hair growth entry in series [7] is “grow longer and fuller”.
Take `Br.CCN(CC)CCOC(=O)CCC/C=C\C[C@@H]1[C@@H](/C=C/[C@@H](O)CCc2ccccc2)[C@H](O)C[C@@H]1O` [HPC of bimatoprost, N,N-diethylaminoethyl (Z)-7-{[(1R,2R,3R,5S)-3,5-Dihydroxy-2-[1E,3S]-3-hydroxy-5-phenyl-1-pentenyl]cyclopentyl}-5-N-ethylheptenoate.HBr]: the eyelash growth entry in series [6] was “grow longer and fuller”. Moreover, the hair growth entry in series [7] is “grow longer and fuller”.
In the case of `C=CCOc1ccc(CC(=O)OCCN(CC)CC)cc1Cl.Cl` [diethylaminoethyl 3-chloro-4-(2-propenyloxy)benzeneacetate. HCl], the “time until lesions healed” value in series [3] is recorded as 10 days.
With `Br.CCN(CC)CCOC(=O)CCC/C=C\C[C@@H]1[C@@H](/C=C/[C@@H](O)COc2cccc(C(F)(F)F)c2)[C@H](O)C[C@@H]1O` [N,N-diethylaminoethyl (Z)-7-[(1R,2R,3R,5S)-3,5-dihydroxy-2-[(1E,3R)-3-hydroxy-4-[(α,α,α-trifluoro-m-tolyl)oxy]-1-butenyl]cyclopentyl]-5-heptenoate.HBr], the eyelash growth entry in series [6] is “grow longer and fuller”. Besides, in series [7], the hair growth result is “grow longer and fuller”.
In the case of `COc1cccc(OC)c1C(=O)NC1C(=O)N2C1SC(C)(C)C2C(=O)OCC1CCCN1.Cl` (stereo not shown) [methicillin-PME, 6-(2,6-dimethoxybenzamido)penicillinic acid 2-pyrrolidinemethyl ester hydrochloride], the minimal inhibitory concentration (MIC) in series [2] turned out to be 19 µg/mL.
